Tested on: antibody production to sheep red blood cells (SRBC)
Experiment: antigen (SRBC) dependent antibody synthesis in vivo (IgM plaques)
Design: species or system Balb/C mice
Conditions: for #Ig M plaques (x ± S.E.): saline control 21 ± 1.1; for % change from control, Ig M plaques: Table VIII; for % change from control, antibody response to SRBC: Table X, *P ≤ 0.001 where starred
Procedure: (3) Antigen (sheep red blood cell, SRBC) dependent antibody synthesis (in vivo)
There is set forth below the standard procedure which should be modified according to the solubility and other properties of the particular compound tested.
1. A solution containing 500 μg/ml NPT is prepared by adding a preweighed amount of the drup powder to sterile BPS (phosphate buffered saline) and sonicating the solution for 30 minutes.
1. NPT drug solution is made by dissolving 500 μg NPT per mil PBS.
1. A 1.4% suspension of agarose in PBS (7 g in 500 ml) is autoclaved for 15 min.
1. Mice are immunized as follows: sheep blood (sheep #23) is received weekly from Hyland labs. It is asceptically collected in two volumes of Alseviers to one volume of blood.
6. The cell count is determined and the stock solution is diluted to 4×10^7 cells/ml. This final suspension is used for immunization.
7. Each mouse is immunized by i.v. injection into the lateral tail vein (warmed in a 50° C. water bath for veinous dilation) with 0.1 ml SRBC (sheep red blood cell) suspensions; the final concentration of SRBC's is 4×10^6 per mouse.
1. Mice are treated by i.p. injection on days […], 1, 2, and 3. A syringe (1 cc) is fitted with a one-half inch, 26 gauge needle. The needle is introduced at a 45° angle along the right side of the linea alba. A 0.2 ml volume is given to both drug and control treated groups.
2. Drug groups are given 0.2 ml of a desired concentration NPT solution which, for a 20 g mouse, is […].
1. Spleens are removed asceptically and placed individually in Falcon #2025 tissue culture tubes containing 3 ml MEM. The tubes are then stored on ice.
2. Spleens are homogenized in the same tube with a teflon pestle attached to a G. K. Heller variable speed reversible motor connected with a G. K. Heller GT-21 motor controller setting #6.
6. The cell count is obtained and the stock suspension is diluted to 1×10^7 cells/ml. The Coulter counter threshhold is set at 10. Red cells are lysed with three drops of Zap isoton.
1. Thirty-five hundredths gram agarose and 0.53 grams MEM powder are placed into an Erlenmeyer flask. Fifty ml of distilled H2 O is then added to the flask.
1. Five ml sheep blood (same batch as used for immunization) is washed three times in PBS using an IEC Clinical Standard Centrifuge, speed #4 (2800 RPM) for 10 min.
1. Agar plates are removed from refrigerator and allowed to warm to room temperature. They are labeled in triplicate for each experimental group.
2. Agar-filled tubes are removed from the water bath. One-tenth of the 10% SRBC's and 0.1 ml spleen cell suspension are added to each agar tube. The tubes are agitated on a Vortex mixer.
3. The contents of the tubes are poured immediately into agar base plates and swirled until a smooth layer is formed. The plates are placed on a level surface until the agar solidifies.
4. The plates are incubated at 37° C. in a humidified atmosphere of 5% CO2 and 95% air for 90 min.
6. Plates are removed from incubator and 1 ml of the diluted complement is added to each plate.
7. Plates are then incubated another 30-45 minutes at 37° C. Plates are then removed from incubator and counted using oblique light.

SMILES: Oc1ncnc2c1nc1n2CCS1 [NPT 16416, 3-hydroxy-7,8-dihydrothiazolo-[3,2e]-purine]
- #Ig M plaques (x ± S.E.) (0.05 mg/kg i.p.): 39 ± 3.34
- #Ig M plaques (x ± S.E.) (0.5 mg/kg i.p.): 35 ± 2.06
- #Ig M plaques (x ± S.E.) (5.0 mg/kg i.p.): 9 ± 0.37
- effect on antibody production in vivo, in words (SRBC immunized mice): enhancement of production of specific antibodies in vivo
- % change from control, Ig M plaques (0.05 mg/kg i.p.): +88%
- % change from control, Ig M plaques (0.5 mg/kg i.p.): +66%
- % change from control, Ig M plaques (5.0 mg/kg i.p.): -58%
- % change from control, antibody response to SRBC (0.5 mg/kg): +66%
- % change from control, antibody response to SRBC (5.0 mg/kg, NPT 16485 N.S.): -80%
- enhancement of antibody production to SRBC (mice, 0.05 mg/kg): 88-226%

Source: patent US4510144A, “Methods of imparting immunomodulating activity with dihydrothiazolo purine derivatives” (Newport Pharmaceuticals International, priority 1982, dated 1985)
